Reference: US8772481B2, “Aza- and diaza-phthalazine compounds as P38 map kinase modulators and methods of use thereof” (Amgen Inc., priority 2008, dated 2014)

What was measured:
human p38α = human p38α (Homo sapiens (Human), UniProt Q16539); assay: Purified and activated recombinant human p38α HTRF assay; assay type: biochemical; conditions: 50 μM ATP, read-out: p38a IC50
Description: Purified and Activated Recombinant Human p38α Assay
Kinase reaction buffer for p38α HTRF assays consists of 50 mM Tris-pH 7.5, 5 mM MgCl2, 0.1 mg/mL BSA, 100 μM Na3VO4 and 0.5 mM DTT.
HTRF detection buffer contains 100 mM HEPES-pH 7.5, 100 mM NaCl, 0.1% BSA, 0.05% Tween-20, and 10 mM EDTA.
Serial Dilution of Compounds:
Compounds were dissolved in 100% DMSO and serially diluted (3 fold, 10 point) in a polypropylene 96-well microtiter plate (drug plate). The final starting concentration of compounds in the p38α enzymatic assays was 1 μM. Columns 6 and 12 (HI controls and LO controls respectively) in the drug plate were reserved as controls and contained only DMSO.
The p38α kinase reactions were carried out in a polypropylene 96-well black round bottom assay plate in total volume of 30 μL kinase reaction buffer. Appropriate concentration of purified and activated enzyme (recombinant human) was mixed with indicated concentration of ATP and 100 nM GST-ATF2-Avitag, in the presence or absence (HI control) of Compound. See table below for actual concentrations. In the absence of substrate, the background was measured as LO control. The reaction was allowed to incubate for 1 hour at RT.
Assay Reagent Concentrations:
The final reagent concentrations were 1 nM p38α and 50 μM ATP.
After 60 minutes incubation at room temperature, the assay plate was read in a Discovery Plate Reader. The wells were excited with coherent 320 nm light and the ratio of delayed ([…] post excitation) emissions at […] (native europium fluorescence) and 665 nm (europium fluorescence transferred to allophycocyanin—an index of substrate phosphorylation) was determined (Park et al, 1999).
The proportion of substrate phosphorylated in the kinase reaction in the presence of compound compared with that phosphorylated in the presence of DMSO vehicle alone (HI control) was calculated using the formula: % control (POC)=(compound−average LO)/(average HI−average LO)*100. Data (consisting of POC and inhibitor concentration in μM) was fitted to a 4-parameter equation (y=A+((B−A)/(1+((x/C)^D))), where A is the minimum y (POC) value, B is the maximum y (POC), C is the x (compound concentration) at the point of inflection and D is the slope factor, using a Levenburg-Marquardt non-linear regression algorithm.
The inhibition constant (Ki) of the inhibitor was estimated from the IC50 (compound concentration at the point of inflection C) using the Cheng-Prussof equation: Ki=IC50/(1+S/Km), where S is the ATP substrate concentration, and Km is the Michaelis constant for ATP as determined experimentally. All results were expressed as the mean±the standard error of the mean. Data acquisition and non-linear regression algorithms were performed using Activity Base v5.2 and XL-fit software v4.1 respectively. All data was archived using Activity Base v5.2 software.

[1] = test system: TNF-α induced IL-8 in human whole blood; assay: Inhibition of TNF-α induced IL-8 in 50% human whole blood; assay type: cell-based; conditions: 1 nM TNF-α, secreted IL-8, read-out: WB TNF/IL8 IC50
Description: Inhibition of TNF-α Induced IL-8 in 50% Human Whole Blood
Test compounds were evaluated in vitro for the ability to inhibit the production of secreted IL-8 by whole blood activated with TNF-α. Fresh human whole blood was obtained from healthy, non-medicated volunteers in sodium heparin tubes.
Compound Dilution—Assay Procedure
Test compounds are serially diluted 1:3 in DMSO and then diluted 1:250 into R10 (RPMI 1640, 10% human serum AB, 1× pen/strep/glutamine) to the 4× working concentration to be used in the assay. 100 ul heparinized whole blood is plated into wells of 96 well flat bottom plates. 50 ul of either 4× compound or DMSO control (Final DMSO concentration is 0.1%) are added to the appropriate wells. Plates are incubated for 1 hour at 37 degrees Celsius. 50 ul of 4×TNF-α (4 nM TNF-α, for a final concentration of 1 nM) or control (media alone) is added to the appropriate wells (Total volume=200 ul). Plates are incubated overnight (16-18 hours). 100 ul of supernatant is collected and stored in 96-well round bottom polypropylene plates at −80 degrees Celsius or assayed immediately for IL-8.
Cytokines are measured on antibody (Ab) sandwich ECL based 96-well detection plates. 20 ul of supernatant are added to plate and plate is sealed and shaken at RT for 1 hour. 130 ul of detection Ab cocktail is added and plates are sealed and shaken for 1 hour in the dark at RT. Plates are read on MSD Sector HTS instrument. Data are analyzed and IC50 values generated using Activity Base and Xl-fit programs.

Chain of human p38α (Q16539 whole entry): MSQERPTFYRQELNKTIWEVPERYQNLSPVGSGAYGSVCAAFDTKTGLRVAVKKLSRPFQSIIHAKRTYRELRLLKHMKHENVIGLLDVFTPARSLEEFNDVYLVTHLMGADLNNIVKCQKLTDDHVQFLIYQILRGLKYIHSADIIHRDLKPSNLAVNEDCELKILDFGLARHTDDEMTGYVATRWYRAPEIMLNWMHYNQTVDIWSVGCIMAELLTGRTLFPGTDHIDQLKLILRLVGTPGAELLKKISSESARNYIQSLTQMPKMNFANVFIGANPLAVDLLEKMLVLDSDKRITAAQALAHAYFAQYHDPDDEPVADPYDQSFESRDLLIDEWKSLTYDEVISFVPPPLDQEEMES

Compound | IC50 (human p38α) [nM] | IC50 [1] [nM]
N-(2,4-difluorophenyl)-5-(3,5-dimethyl-1H-pyrazol-4-yl)pyrido[2,3-d]pyridazin-2-amine [Example 2] | 1.6 | 1.8
O=C(c1cccc(-c2nncc3nc(Nc4ccc(F)cc4F)ccc23)c1)N1CCOCC1 [Example 11, N-(2,4-difluorophenyl)-5-(3-(4-morpholinylcarbonyl)phenyl)pyrido[2,3-d]pyridazin-2-amine] | 45 | 79
Cc1ncccc1-c1nncc2nc(Nc3ccc(F)cc3F)ccc12 [Example 8, N-(2,4-difluorophenyl)-5-(2-methyl-3-pyridinyl)pyrido[2,3-d]pyridazin-2-amine] | 1.2 | 2.6
Cn1cc(-c2nncc3nc(Nc4ccc(F)cc4F)ccc23)cn1 [Example 12, N-(2,4-difluorophenyl)-5-(1-methyl-1H-pyrazol-4-yl)pyrido[2,3-d]pyridazin-2-amine] | 5.6 | 13
Cc1n[nH]cc1-c1nncc2nc(Nc3ccc(F)cc3F)ccc12 [Example 14, N-(2,4-difluorophenyl)-5-(3-methyl-1H-pyrazol-4-yl)pyrido[2,3-d]pyridazin-2-amine] | 1.1 | 2.7
Cc1noc(C)c1-c1nncc2nc(Nc3ccc(F)cc3F)ccc12 [Example 15, N-(2,4-difluorophenyl)-5-(3,5-dimethyl-4-isoxazolyl)pyrido[2,3-d]pyridazin-2-amine] | 7.1 | 10
Cc1cc(S(C)(=O)=O)ccc1-c1nncc2nc(Nc3ccc(F)cc3F)ccc12 [Example 7, N-(2,4-difluorophenyl)-5-(2-methyl-4-(methylsulfonyl)phenyl)pyrido[2,3-d]pyridazin-2-amine] | 0.5 | 2.6
Fc1ccc(Nc2ccc3c(N4CCOCC4)nncc3n2)c(F)c1 [Example 3, N-(2,4-difluorophenyl)-5-(4-morpholinyl)pyrido[2,3-d]pyridazin-2-amine] | 4 | 7.6
Cc1ccc(C(N)=O)cc1-c1nncc2nc(Oc3ccc(F)cc3F)ccc12 [Example 5, 3-(2-(2,4-difluorophenoxy)pyrido[2,3-d]pyridazin-5-yl)-4-methylbenzamide] | 0.3 | 1
Cc1cc(F)ccc1Oc1ccc2c(-c3cc(C(N)=O)ccc3C)nncc2n1 [Example 23, 3-(2-(4-fluoro-2-methylphenoxy)pyrido[2,3-d]pyridazin-5-yl)-4-methylbenzamide] | 417 | 1030
Cc1ccccc1-c1nncc2nc(Nc3ccc(F)cc3F)ccc12 [Example 6, N-(2,4-difluorophenyl)-5-(2-methylphenyl)pyrido[2,3-d]pyridazin-2-amine] | 0.5 | 1.1
Cc1noc(C)c1-c1nncc2nc(Oc3ccc(F)cc3F)ccc12 [Example 21, 2-(2,4-difluorophenoxy)-5-(3,5-dimethyl-4-isoxazolyl)pyrido[2,3-d]pyridazine] | 6.5 | 43
Cc1ccc(C(N)=O)cc1-c1nncc2nc(Oc3ccc(F)cc3)ccc12 [Example 20, 3-(2-(4-fluorophenoxy)pyrido[2,3-d]pyridazin-5-yl)-4-methylbenzamide] | 1.2 | 3.1
Cc1cc(S(C)(=O)=O)ccc1-c1nncc2nc(Oc3ccc(F)cc3F)ccc12 [Example 17, 2-(2,4-difluorophenoxy)-5-(2-methyl-4-(methylsulfonyl)phenyl)pyrido[2,3-d]pyridazine] | 0.7 | 12
Cc1cc(S(C)(=O)=O)ccc1-c1nncc2nc(Nc3ccc(F)cc3)ccc12 [Example 9, N-(4-fluorophenyl)-5-(2-methyl-4-(methylsulfonyl)phenyl)pyrido[2,3-d]pyridazin-2-amine] | 0.9 | 9
Fc1ccc(Nc2ccc3c(-c4cn[nH]c4)nncc3n2)c(F)c1 [Example 13, N-(2,4-difluorophenyl)-5-(1H-pyrazol-4-yl)pyrido[2,3-d]pyridazin-2-amine] | 3.5 | 2.3
Fc1ccc(Oc2ccc3c(-c4cn[nH]c4)nncc3n2)c(F)c1 [Example 18, 2-(2,4-difluorophenoxy)-5-(1H-pyrazol-4-yl)pyrido[2,3-d]pyridazine] | 5.1 | 24
Cc1ccccc1-c1nncc2nc(Oc3ccc(F)cc3F)ccc12 [Example 16, 2-(2,4-difluorophenoxy)-5-(2-methylphenyl)pyrido[2,3-d]pyridazine] | 0.2 | 2.3
Fc1ccc(Nc2ccc3c(-c4ccc(F)cc4F)nncc3n2)c(F)c1 [Example 10, N,5-bis(2,4-difluorophenyl)pyrido[2,3-d]pyridazin-2-amine] | 0.3 | 2.1
Cc1ccccc1-c1nncc2nc(Oc3ccc(F)cc3)ccc12 [Example 19, 2-(4-fluorophenoxy)-5-(2-methylphenyl)pyrido[2,3-d]pyridazine] | 0.9 | 5.9
Cc1cc(F)ccc1Oc1ccc2c(-c3ccccc3C)nncc2n1 [Example 22, 2-(4-fluoro-2-methylphenoxy)-5-(2-methylphenyl)pyrido[2,3-d]pyridazine] | 168 | 620
